Reference: US20260092179A1, “GENETICALLY MODIFIED HOST CELLS PRODUCING VIOLACEIN, ANALOGUES, AND DERIVATIVES THEREOF” (OCTARINE BIO APS, priority 2022, published 2026)

How the values were obtained:
[1] = Free radical scavenging ability of dyed Nylon 6,6 fabric (DPPH); assay type: biochemical; conditions: dyed Nylon 6,6 fabric strip
Method: Violacein is reported as being a potent antioxidant able to effectively scavenge free radicals. […] To test this, 1.5×1.5 cm dyed Nylon 6,6 fabric strips were incubated in the dark at room temperature for 1 h in 5 mL of a 5×10^−5 M DPPH free radical solution in 100% ethanol. Undyed Nylon 6,6 fabric strips were included as a negative control. After 1 h absorbance was measured at 517 nm and % scavenging ability calculated as above.

[2] = UV stability of dyed fabrics (colour fastness, ΔE); assay type: physicochemical; conditions: for ΔE: before vs after UV lamp, room temperature, 1 h
Method: (§1) In order to assess the stability and colour fastness of violacein and violacein derivatives dyed onto fabrics, dyed fabrics were subjected to a number of conditions. Fabrics were dyed according to Example 18 and colour coordinates and colour change before and after exposure to a given condition were determined as described in Example 18. To measure temperature stability, fabrics were incubated in an oven set to 80° c. for 4 h. To measure stability under acid and alkaline conditions, fabrics were fully submerged in water solutions set to pH 8 with NaOH and pH 5 with HCl and incubated at room temperature for 30 minutes. Fabrics were then incubated at 37° c. for 4 h. To measure stability during laundering, fabrics were washed at 30° c. under the “mix” setting of a Siemens IQ300 washing machine, then dried in a Siemens IQ300 dryer until dry. To measure artificial light stability, fabrics were placed under an LED lamp at room temperature for 16 h. To measure UV light stability, fabrics were placed under a UV lamp at room temperature for 1 h.

[3] = Artificial light stability of dyed fabrics (colour fastness, ΔE); assay type: physicochemical; conditions: for ΔE: before vs after LED lamp, room temperature, 16 h
Method: as §1

[4] = Acidic pH stability of dyed fabrics (colour fastness, ΔE); assay type: physicochemical; conditions: pH 5 with HCl
Method: as §1

[5] = Acrylic, after test (UV lamp, room temperature, 1 h)
[6] = Bleached cotton, after test (UV lamp, room temperature, 1 h)
[7] = Diacetate, after test (UV lamp, room temperature, 1 h)
[8] = Nylon 6,6, after test (UV lamp, room temperature, 1 h)
[9] = Polyester, after test (UV lamp, room temperature, 1 h)
[10] = Wool, after test (UV lamp, room temperature, 1 h)
[11] = Acrylic, after test (LED lamp, room temperature, 16 h)
[12] = Bleached cotton, after test (LED lamp, room temperature, 16 h)
[13] = Diacetate, after test (LED lamp, room temperature, 16 h)
[14] = Nylon 6,6, after test (LED lamp, room temperature, 16 h)
[15] = Polyester, after test (LED lamp, room temperature, 16 h)
[16] = Wool, after test (LED lamp, room temperature, 16 h)

What does the source list for O=C1NC(c2c[nH]c3ccccc23)=C/C1=C1\C(=O)Nc2ccccc21 [deoxyviolacein]?
OD517 ([1]; 1 h in the dark in 5×10^−5 M DPPH in 100% ethanol): 1.43; Scavenging ability % ([1]; 1 h in the dark in 5×10^−5 M DPPH, vs undyed control): 37.05%; L [2, 5]: 61.34; a [2, 5]: 2.05; b [2, 5]: −2.89; L ([2]; Acrylic, before test): 60.15; a ([2]; Acrylic, before test): 1.07; b ([2]; Acrylic, before test): −2.07; ΔE ([2]; Acrylic): 1.75; L [2, 6]: 62.17; a [2, 6]: 1.62; b [2, 6]: −6.68; L ([2]; Bleached cotton, before test): 61.4; a ([2]; Bleached cotton, before test): 1.8; b ([2]; Bleached cotton, before test): −7.92; ΔE ([2]; Bleached cotton): 1.47; L [2, 7]: 53.68; a [2, 7]: 8.75; b [2, 7]: −10.95; L ([2]; Diacetate, before test): 52.05; a ([2]; Diacetate, before test): 9.98; b ([2]; Diacetate, before test): −14.88; ΔE ([2]; Diacetate): 4.43; L [2, 8]: 46.19; a [2, 8]: 4.4; b [2, 8]: −19.75; L ([2]; Nylon 6,6, before test): 45.92; a ([2]; Nylon 6,6, before test): 4.94; b ([2]; Nylon 6,6, before test): −21.23; ΔE ([2]; Nylon 6,6): 1.60; L [2, 9]: 67.09; a [2, 9]: 1.19; b [2, 9]: −3.68; L ([2]; Polyester, before test): 66.55; a ([2]; Polyester, before test): 1.03; b ([2]; Polyester, before test): −2.87; ΔE ([2]; Polyester): 0.99; L [2, 10]: 67.65; a [2, 10]: 0.75; b [2, 10]: 1.17; L ([2]; Wool, before test): 65.56; a ([2]; Wool, before test): 0.65; b ([2]; Wool, before test): 0.31; ΔE ([2]; Wool): 2.26; L [3, 11]: 64.84; a [3, 11]: 0.76; b [3, 11]: 2.12; L ([3]; Acrylic, before test): 60.52; a ([3]; Acrylic, before test): 1.59; b ([3]; Acrylic, before test): −2.77; ΔE ([3]; Acrylic): 6.58; L [3, 12]: 62.47; a [3, 12]: 2; b [3, 12]: −6.81; L ([3]; Bleached cotton, before test): 60.49; a ([3]; Bleached cotton, before test): 0.97; b ([3]; Bleached cotton, before test): −7.49; ΔE ([3]; Bleached cotton): 2.33; L [3, 13]: 49.82; a [3, 13]: 9.13; b [3, 13]: −9.9; L ([3]; Diacetate, before test): 47.05; a ([3]; Diacetate, before test): 13.99; b ([3]; Diacetate, before test): −17.37; ΔE ([3]; Diacetate): 9.33; L [3, 14]: 46.23; a [3, 14]: 5.57; b [3, 14]: −18.4; L ([3]; Nylon 6,6, before test): 43.65; a ([3]; Nylon 6,6, before test): 5.57; b ([3]; Nylon 6,6, before test): −20.95; ΔE ([3]; Nylon 6,6): 3.63; L [3, 15]: 70.32; a [3, 15]: 0.28; b [3, 15]: 2.09; L ([3]; Polyester, before test): 64.39; a ([3]; Polyester, before test): 1.76; b ([3]; Polyester, before test): −4.83; ΔE ([3]; Polyester): 9.23; L [3, 16]: 69.63; a [3, 16]: 0.44; b [3, 16]: 3.2; L ([3]; Wool, before test): 64.28; a ([3]; Wool, before test): −0.4; b ([3]; Wool, before test): −0.37; ΔE ([3]; Wool): 6.49; L ([4]; Acrylic, After test): 59.8; a ([4]; Acrylic, After test): 2.01; b ([4]; Acrylic, After test): −3.77; L ([4]; Acrylic, Before test): 58.82; a ([4]; Acrylic, Before test): 2.34; b ([4]; Acrylic, Before test): −2.86; ΔE ([4]; Acrylic, before and after the stability test): 1.38; L ([4]; Bleached cotton, After test): 60.27; a ([4]; Bleached cotton, After test): 0.74; b ([4]; Bleached cotton, After test): −8.67; L ([4]; Bleached cotton, Before test): 58.08; a ([4]; Bleached cotton, Before test): 1.02; b ([4]; Bleached cotton, Before test): −7.23; ΔE ([4]; Bleached cotton, before and after the stability test): 2.64; L ([4]; Diacetate, After test): 46.41; a ([4]; Diacetate, After test): 12.25; b ([4]; Diacetate, After test): −16.83; L ([4]; Diacetate, Before test): 46.86; a ([4]; Diacetate, Before test): 12.01; b ([4]; Diacetate, Before test): −17.99; ΔE ([4]; Diacetate, before and after the stability test): 1.27; L ([4]; Nylon 6,6, After test): 44.46; a ([4]; Nylon 6,6, After test): 6.37; b ([4]; Nylon 6,6, After test): −22.27; L ([4]; Nylon 6,6, Before test): 43; a ([4]; Nylon 6,6, Before test): 5.21; b ([4]; Nylon 6,6, Before test): −20.47; ΔE ([4]; Nylon 6,6, before and after the stability test): 2.59; L ([4]; Polyester, After test): 64.95; a ([4]; Polyester, After test): 2.03; b ([4]; Polyester, After test): −5.57; L ([4]; Polyester, Before test): 62.77; a ([4]; Polyester, Before test): 2; b ([4]; Polyester, Before test): −5.04; ΔE ([4]; Polyester, before and after the stability test): 2.24; L ([4]; Wool, After test): 64.01; a ([4]; Wool, After test): 0.41; b ([4]; Wool, After test): −0.81; L ([4]; Wool, Before test): 63.73; a ([4]; Wool, Before test): 0.62; b ([4]; Wool, Before test): −0.94; ΔE ([4]; Wool, before and after the stability test): 0.37
